Measurements from patent publication EP4596547A1, “HETEROCYCLIC COMPOUND AND HARMFUL ARTHROPOD-CONTROLLING COMPOSITION CONTAINING SAME” (priority 2022, dated 2024).

What was measured:
Type in all cases: in vivo
[1] = test system: cotton aphids (Aphis gossypii); assay: Test method 11: foliar spray on cucumber seedlings inoculated with cotton aphids (formulation per Formulation Example 5); settings: 120 h, sprayed 10 mL/seedling one day after inoculation, after 5 days, 25°C, read-out: control value
[2] = test system: diamondback moth (Plutella xylostella); assay: Test method 4: sprayed cabbage foliage cut out, second instar larvae of diamondback moth released; settings: foliar, 120 h, sprayed 20 mL/seedling, five second instar larvae, after 5 days, 25°C
Description: (§1) A test compound is formed into a formulation according to the method described in Formulation Example 1, and water containing 0.03% by volume of Shindain (registered trademark) is added thereto to prepare a diluted solution containing the test compound at a predetermined concentration.
(§2) A cabbage (Brassicae oleracea) seedling (2 to 3 true leaf stage) planted in a container is sprayed with the diluted solution at a rate of 20 mL/seedling. Thereafter, the foliage portion of the seedling is cut out and placed in a container on which filter paper is laid. Thereto are released five second instar larvae of diamondback moth (Plutella xylostella). After 5 days, the number of surviving insects is counted, and the mortality is determined from the following equation. [formula]

[3] = test system: diamondback moth (Plutella xylostella); assay: Test method 10: sprayed cabbage seedling, third instar larvae of diamondback moth released; settings: 144 h, sprayed 20 mL/seedling, 10 third instar larvae, after 6 days, 25°C
Description: A test compound is formed into a formulation according to the method described in Formulation Example 5, and water containing 0.03% by volume of Shindain (registered trademark) is added thereto to prepare a diluted solution containing the test compound at a predetermined concentration.
A cabbage (Brassicae oleracea) seedling (3 to 4 true leaf stage) planted in a container is sprayed with the diluted solution at a rate of 20 mL/seedling. Thereafter, 10 third instar larvae of diamondback moth (Plutella xylostella) are released. After 6 days, the number of surviving insects is counted, and the mortality is determined from the following equation. [formula]

Culex pipiens pallens = assay: Test method 12: last-instar larvae of Culex pipiens pallens released into diluted solution; settings: 24 h, 30 last-instar larvae, one day later, 25°C
Description: The test compound is formulated according to the method described in Formulation Example 1, and water is added thereto to prepare a diluted solution containing the test compound at a predetermined concentration. 30 last-instar larvae of Culex pipiens pallens are released into the diluted solution, and the state of the larvae of Culex pipiens is examined one day later to determine the Mortality. The mortality is calculated by the following equation. [formula]

[4] = test system: cotton aphids (Aphis gossypii); assay: Test method 1: foliar spray on cucumber seedlings inoculated with cotton aphids (formulation per Formulation Example 1); parameters: mortality: concentration or dose not given beside the values; settings: 120 h, sprayed 10 mL/seedling one day after inoculation, surviving insects examined after 5 days, 25°C, read-out: control value
Aphis gossypii = assay: Test method 2: soil irrigation of cucumber seedlings, later inoculated with Aphis gossypii; settings: 144 h, irrigated 5 mL/seedling, inoculated after 7 days, surviving insects examined after 6 days, 25°C, read-out: control value
Description: The test compound is formulated according to the method described in Formulation Example 5, and water is added thereto to prepare a diluted solution containing the test compound at a predetermined concentration. A cucumber (Cucumis sativus) seedling (second true leaf stage) planted in a container is irrigated with the diluted solution at a rate of 5 mL/seedling. After 7 days, the leaf surface of this seedling is inoculated with about 30 Aphis gossypii (whole stage). After 6 days, the number of surviving insects is examined, and the control value is determined by the following formula. [formula] • Characters in the formula represent the following meanings. • Cb: number of test insects in a non-treated section • Cai: number of surviving insects in a non-treated section at the time of investigation • Tb: number of test insects in a treated section • Tai: number of surviving insects in a treated section at the time of investigation Herein, the non-treated section means a section that is subjected to the same operation as that of the treated section except that the test compound is not used.

[5] = test system: common cutworm (Spodoptera litura); assay: Test method 3: sprayed cabbage foliage cut out, second instar larvae of common cutworm released; settings: foliar, 120 h, sprayed 20 mL/seedling, five second instar larvae, after 5 days, 25°C
Description: as §1
as §2, with “common cutworm (Spodoptera litura).” for “diamondback moth (Plutella xylostella).”

Row | Compound | mortality at 50 ppm [1] [%] | mortality at 200 ppm [1] [%] | mortality at 500 ppm [2] [%] | mortality at 200 ppm [3] [%] | mortality at 3.5 ppm (Culex pipiens pallens) [%] | mortality at 500 ppm [4] [%] | mortality at 50 ppm [3] [%] | mortality at 1000 ppm (Aphis gossypii) [%] | mortality [4] [%] | mortality at 500 ppm [5] [%]
1 | CCSc1c(N(C)C(=O)c2cc(C(F)(F)F)nn2C)nc2ccc(I)cn12 [compound 3] | ≥ 90 | ≥ 90 | ≥ 80 | ≥ 80 | > 90 | ≥ 90 | – | – | – | –
2 | CCSc1c(N(C)C(=O)c2ccc(C(F)(F)F)o2)nc2ccc(I)cn12 [compound 5] | ≥ 90 | ≥ 90 | ≥ 80 | – | > 90 | ≥ 90 | – | – | – | –
3 | CCSc1c(N(C)C(=O)c2cnc(C(F)(F)F)s2)nc2ccc(I)cn12 [compound 7] | ≥ 90 | ≥ 90 | ≥ 80 | ≥ 80 | > 90 | ≥ 90 | ≥ 80 | ≥ 90 | – | –
4 | CCSc1c(N(C)C(=O)c2cnc(C(F)(F)F)s2)nc2ccc(Br)cn12 [compound 8] | ≥ 90 | ≥ 90 | ≥ 80 | – | > 90 | ≥ 90 | – | – | – | –
5 | CCSc1c(N(C)C(=O)c2cnc(C(F)(F)F)s2)nc2ccc(C(F)(F)F)cn12 [compound 9] | ≥ 90 | ≥ 90 | ≥ 80 | – | > 90 | ≥ 90 | – | – | – | –
6 | CCSc1c(N(C)C(=O)c2cnc(C(F)(F)F)s2)nc2cc(I)ccn12 [compound 10] | ≥ 90 | ≥ 90 | ≥ 80 | ≥ 80 | > 90 | ≥ 90 | – | – | – | –
7 | CCSc1c(N(C)C(=O)c2cnc(C(F)(F)F)s2)nc2cc(Br)ccn12 [compound 11] | ≥ 90 | ≥ 90 | ≥ 80 | – | > 90 | ≥ 90 | – | ≥ 90 | – | –
8 | CCSc1c(N(C)C(=O)c2nc(C(F)(F)F)cs2)nc2ccc(I)cn12 [compound 13] | – | ≥ 90 | ≥ 80 | – | > 90 | ≥ 90 | – | – | – | –
9 | CCSc1c(N(C)C(=O)c2ccn(C(F)F)n2)nc2ccc(I)cn12 [compound 19] | ≥ 90 | ≥ 90 | – | – | > 90 | ≥ 90 | – | – | – | –
10 | CCSc1c(N(C)C(=O)c2cnn(C(F)F)c2)nc2ccc(I)cn12 [compound 24] | – | ≥ 90 | ≥ 80 | – | > 90 | ≥ 90 | – | – | – | –
11 | CCSc1c(N(C)C(=O)c2cn(CC(F)(F)F)nn2)nc2ccc(I)cn12 [compound 27] | – | ≥ 90 | – | ≥ 80 | > 90 | ≥ 90 | – | – | – | –
12 | CCS(=O)(=O)c1c(N(C)C(=O)c2cc(C(F)(F)F)nn2C)nc2ccc(I)cn12 [compound 36] | ≥ 90 | ≥ 90 | – | ≥ 80 | – | – | ≥ 80 | – | – | –
13 | CCS(=O)(=O)c1c(N(C)C(=O)c2ccc(C(F)(F)F)o2)nc2ccc(I)cn12 [compound 39] | ≥ 90 | ≥ 90 | ≥ 80 | – | > 90 | ≥ 90 | – | ≥ 90 | – | –
14 | CC[S+]([O-])c1c(N(C)C(=O)c2cnc(C(F)(F)F)s2)nc2ccc(Br)cn12 (stereo not shown) [compound 41] | ≥ 90 | ≥ 90 | ≥ 80 | ≥ 80 | – | ≥ 90 | – | ≥ 90 | – | –
15 | CCS(=O)(=O)c1c(N(C)C(=O)c2cnc(C(F)(F)F)s2)nc2ccc(Br)cn12 [compound 42] | ≥ 90 | ≥ 90 | ≥ 80 | ≥ 80 | > 90 | ≥ 90 | – | ≥ 90 | – | –
16 | CC[S+]([O-])c1c(N(C)C(=O)c2cnc(C(F)(F)F)s2)nc2ccc(C(F)(F)F)cn12 (stereo not shown) [compound 43] | ≥ 90 | ≥ 90 | ≥ 80 | ≥ 80 | – | ≥ 90 | – | ≥ 90 | – | –
17 | CCS(=O)(=O)c1c(N(C)C(=O)c2cnc(C(F)(F)F)s2)nc2ccc(C(F)(F)F)cn12 [compound 44] | ≥ 90 | ≥ 90 | ≥ 80 | ≥ 80 | > 90 | ≥ 90 | – | ≥ 90 | – | –
18 | CCS(=O)(=O)c1c(N(C)C(=O)c2cnc(C(F)(F)F)s2)nc2cc(I)ccn12 [compound 46] | ≥ 90 | ≥ 90 | ≥ 80 | – | > 90 | – | – | ≥ 90 | ≥ 90 | –
19 | CC[S+]([O-])c1c(N(C)C(=O)c2cnc(C(F)(F)F)s2)nc2cc(Br)ccn12 (stereo not shown) [compound 47] | ≥ 90 | ≥ 90 | ≥ 80 | ≥ 80 | – | ≥ 90 | – | ≥ 90 | – | –
20 | CCS(=O)(=O)c1c(N(C)C(=O)c2cnc(C(F)(F)F)s2)nc2cc(Br)ccn12 [compound 48] | ≥ 90 | ≥ 90 | ≥ 80 | ≥ 80 | > 90 | ≥ 90 | – | – | – | ≥ 80
21 | CCS(=O)(=O)c1c(N(C)C(=O)c2nc(C(F)(F)F)cs2)nc2ccc(I)cn12 [compound 50] | – | – | ≥ 80 | – | – | – | – | – | – | –
22 | CCS(=O)(=O)c1c(N(C)C(=O)c2cc(Br)n(C)n2)nc2ccc(I)cn12 [compound 53] | ≥ 90 | ≥ 90 | ≥ 80 | – | – | ≥ 90 | – | – | – | –
23 | CCS(=O)(=O)c1c(N(C)C(=O)c2cc(OC(F)F)n(C)n2)nc2ccc(I)cn12 [compound 55] | – | – | – | – | > 90 | – | – | – | – | –
24 | CCS(=O)(=O)c1c(N(C)C(=O)c2ccn(C3CC3)n2)nc2ccc(I)cn12 [compound 57] | – | ≥ 90 | ≥ 80 | – | > 90 | ≥ 90 | – | – | – | –
25 | CC[S+]([O-])c1c(N(C)C(=O)c2cnn(C(F)(F)F)c2)nc2ccc(I)cn12 (stereo not shown) [compound 60] | – | – | ≥ 80 | – | – | ≥ 90 | – | – | – | –
26 | CCS(=O)(=O)c1c(N(C)C(=O)c2cnn(C(F)(F)F)c2)nc2ccc(I)cn12 [compound 61] | – | – | ≥ 80 | – | – | ≥ 90 | – | – | – | –
27 | CCS(=O)(=O)c1c(N(C)C(=O)c2cnn(C(F)F)c2)nc2ccc(I)cn12 [compound 63] | – | – | ≥ 80 | – | – | ≥ 90 | – | – | – | –
28 | CCS(=O)(=O)c1c(N(C)C(=O)c2cnn(C3CC3)c2)nc2ccc(I)cn12 [compound 64] | – | – | ≥ 80 | – | – | ≥ 90 | – | ≥ 90 | – | –
29 | CCS(=O)(=O)c1c(N(C)C(=O)c2cn(CC(F)(F)F)nn2)nc2ccc(I)cn12 [compound 67] | ≥ 90 | ≥ 90 | – | – | > 90 | ≥ 90 | – | ≥ 90 | – | –
